Measured values reported in ChEMBL document CHEMBL1201862, “PubChem BioAssay data set” (2004).
The source made the active and inactive calls. Rule as the data show it, for most assays here: actives have a measured EC50 and inactives only a lower limit.

How the values were obtained:
[1] = HEp-2 cell cytotoxicity, dose response, cytotoxicity control for RSV inhibitor project, HTS (AID 2410); assay type: functional; conditions: human respiratory syncytial virus
[2] = Luminescence Cell-Based Dose Response HTS to Identify Inhibitors of 5'UTR Stem-Loop Driven Prion Protein mRNA Translation in H4 Neuroglioblastoma Cells. [Related pubchem assays: 1827 (Project Summary), 1813 (Primary HTS)]; assay type: functional
[3] = inhibitors of SNCA 5'UTR-driven reporter translation, confirmation, H4 neuroglioma cells, luminescence (AID 1988); assay type: functional, cell-based
[4] = inhibitors of firefly luciferase expression or activity, dose response, H4 neuroglioma cells, luminescence (AID 1990); assay type: functional, cell-based
[5] = molecular target: T1, Heat shock factor protein 1 (Mus musculus, UniProt P38532); experiment: inhibition of MG132-induced HSE-luciferase signal, confirmation, cell-based, NIH3T3, luminescence, dose retest (AID 2382); assay type: functional;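 also: NIH3T3 fibroblasts with HSF1-driven luciferase reporter stressed by proteasome inhibitor MG132; luminescence from HSF1-driven luciferase expression after 8 hours of MG132 stress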
T1 sequence (P38532 whole entry): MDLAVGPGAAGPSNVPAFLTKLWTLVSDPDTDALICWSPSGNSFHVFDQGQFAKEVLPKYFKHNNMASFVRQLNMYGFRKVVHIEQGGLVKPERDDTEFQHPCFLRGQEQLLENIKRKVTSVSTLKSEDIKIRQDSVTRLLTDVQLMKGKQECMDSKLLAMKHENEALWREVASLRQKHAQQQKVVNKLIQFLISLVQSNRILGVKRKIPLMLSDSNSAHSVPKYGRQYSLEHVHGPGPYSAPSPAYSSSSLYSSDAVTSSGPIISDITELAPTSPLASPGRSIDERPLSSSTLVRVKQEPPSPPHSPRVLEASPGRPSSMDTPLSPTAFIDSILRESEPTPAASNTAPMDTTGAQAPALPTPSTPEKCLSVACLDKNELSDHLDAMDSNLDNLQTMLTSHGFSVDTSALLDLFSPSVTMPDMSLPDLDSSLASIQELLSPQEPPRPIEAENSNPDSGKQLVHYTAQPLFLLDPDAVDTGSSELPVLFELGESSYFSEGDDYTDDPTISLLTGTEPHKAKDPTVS

[6] = system: Streptococcus sp. 'group A'; experiment: growth inhibition of control SK(-) GAS strain, dose response, counter-screen for streptokinase expression inhibitor project, luminescence, kanamycin, BacTiterGlo, confirmation (AID 1900); assay type: functional, organism-based
[7] = system: Streptococcus; experiment: Group A Streptococcus viability loss, dose response, counter-screen for streptokinase expression inhibitor project, luminescence, BacTiterGlo (AID 1915); assay type: functional, organism-based;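 also: potency for reduction of bacterial viability or growth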
[8] = molecular target: T2, Streptokinase A (Streptococcus pyogenes serotype M1, UniProt P10520); experiment: S. pyogenes streptokinase expression inhibitors, potency, dose response, plasminogen activation absorbance, OD405 (AID 1914); assay type: functional, Streptococcus pyogenes M1 GAS;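 also: secreted streptokinase activity via plasminogen activation per viability signal from cell pellet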
T2 sequence (P10520 whole entry): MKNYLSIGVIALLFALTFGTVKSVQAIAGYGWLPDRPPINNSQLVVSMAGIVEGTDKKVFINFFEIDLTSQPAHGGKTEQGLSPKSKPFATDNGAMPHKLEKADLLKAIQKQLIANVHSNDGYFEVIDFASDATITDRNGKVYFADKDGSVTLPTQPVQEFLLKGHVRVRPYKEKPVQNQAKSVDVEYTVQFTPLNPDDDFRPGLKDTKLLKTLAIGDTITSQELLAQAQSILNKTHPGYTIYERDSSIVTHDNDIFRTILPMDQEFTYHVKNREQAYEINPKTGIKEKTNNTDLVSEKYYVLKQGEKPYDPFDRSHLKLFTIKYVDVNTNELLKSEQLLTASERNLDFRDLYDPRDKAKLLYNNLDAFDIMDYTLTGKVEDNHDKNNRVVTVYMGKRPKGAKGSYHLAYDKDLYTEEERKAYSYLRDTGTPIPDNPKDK

[9] = inhibitors of intracellular T. cruzi replication, confirmation, NIH3T3 host cells, beta-gal luminescence (AID 2044); assay type: functional, cell-based;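 also: intracellular parasites grown in NIH/3T3 mouse fibroblasts as host cells; luminescent beta-galactosidase reporter signal from transgenic T. cruzi replicating inside host cells; inhibitors lower the luminescence signal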
[10] = cytotoxicity toward NIH3T3 fibroblasts, dose response, counter-screen, cell-based, ATP luminescence, mouse fibroblasts (AID 2010); assay type: functional;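 also: cells exposed to compound for about 90 hours before reading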
[11] = molecular target: T3, Rac GTPase-activating protein 1 (Homo sapiens, UniProt Q9H0H5); experiment: MgcRacGAP GTPase-activating activity inhibitors, confirmation, biochemical, ADP Hunter fluorescence, primary and confirmatory (AID 624330); assay type: functional
T3 sequence (Q9H0H5 whole entry): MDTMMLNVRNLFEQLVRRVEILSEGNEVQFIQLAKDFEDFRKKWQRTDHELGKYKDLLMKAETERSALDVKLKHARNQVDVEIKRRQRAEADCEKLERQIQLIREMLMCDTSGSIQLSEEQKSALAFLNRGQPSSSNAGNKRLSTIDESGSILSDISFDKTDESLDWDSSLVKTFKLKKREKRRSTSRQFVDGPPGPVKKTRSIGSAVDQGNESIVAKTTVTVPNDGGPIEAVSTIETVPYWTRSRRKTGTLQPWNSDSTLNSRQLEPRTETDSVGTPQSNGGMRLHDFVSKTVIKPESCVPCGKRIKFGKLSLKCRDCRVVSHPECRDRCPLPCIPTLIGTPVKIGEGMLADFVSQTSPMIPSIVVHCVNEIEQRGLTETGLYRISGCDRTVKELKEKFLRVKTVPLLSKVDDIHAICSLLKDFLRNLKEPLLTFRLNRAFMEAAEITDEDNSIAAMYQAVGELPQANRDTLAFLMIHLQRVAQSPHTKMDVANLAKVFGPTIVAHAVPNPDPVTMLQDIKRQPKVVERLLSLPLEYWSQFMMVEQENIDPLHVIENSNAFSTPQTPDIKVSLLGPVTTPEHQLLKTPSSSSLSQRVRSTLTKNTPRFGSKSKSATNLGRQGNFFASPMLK

[12] = Luminescence Cell-Based Dose Retest to Confirm Inhibitors of Cancer Stem Cells. [Related pubchem assays (depositor defined):AID2717, AID2721]; assay type: functional; conditions: Homo sapiens
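For AC50 in this document: cells exposed to compound for roughly 70 hours or longer before luminescence read.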

COc1ccc(CCNC(=O)c2ccc3c(c2)N(Cc2ccc(F)cc2)CCS3)cc1OC
CC50 [1]: 25.7 µM (active)

CCOC(=O)c1ccc(NC(=O)c2cc3c(C)nn(-c4ccccc4Cl)c3s2)s1
EC50 [2]: > 120 µM (not active) | EC50 [3]: > 120 µM (not active) | EC50 [4]: 15.3 µM (active)

Cc1nn(Cc2ccc(F)cc2)c(C)c1NC(=O)c1cc(-c2ccc3c(c2)OCO3)on1
EC50 [2]: > 120 µM (not active) | EC50 [3]: > 120 µM (not active) | EC50 [4]: 15.7 µM (active)

CC1(OC(=O)CCc2ccccc2)C(=O)C=C2C=C(c3ccc(C#N)cc3)N(CCc3ccccn3)C=C2C1=O (configuration not stated)
EC50 [5]: > 195 µM (not active)

COc1cc(OC)c2c3c(c(C4CCCCC4)nc2c1)CCC3
CC50 [1]: 30.1 µM (active)

N#CCc1c(C#N)c(N)nc(N2CCCC2)c1C#N
CC50 [1]: 19.6 µM (active)

CCOC(=O)c1c(C)[nH]c(C)c1S(=O)(=O)NCCc1cccs1
EC50 [5]: > 195 µM (not active)

N#Cc1c(NC(=S)NC(=O)C2CCCC2)sc2c1CCCCC2
EC50 [6]: 8.59 µM (active) | EC50 [7]: 27.1 µM (active) | EC50 [8]: 2.9 µM (active)

Cc1nc(N)sc1-c1csc(Nc2ccc(Cl)cn2)n1
CC50 [1]: 7.95 µM (active)

COc1ccccc1CNC(=O)c1ccc2[nH]c3nc4ccccc4c-3nc2c1
CC50 [1]: > 50 µM (active)

O=C(c1ccccc1)c1nc2ccccc2n(CCCn2c(=O)c(C(=O)c3ccccc3)nc3ccccc32)c1=O
EC50 [2]: 34.5 µM (active) | EC50 [3]: > 120 µM (not active) | EC50 [4]: 33.3 µM (active)

COc1cnc(-c2ccccn2)nc1Oc1ccccc1
EC50 [6]: > 150 µM (not active) | EC50 [7]: > 150 µM (not active) | EC50 [8]: > 150 µM (not active)

COc1ccc(CNc2nc3c(c(=O)[nH]c(=O)n3C)n2Cc2ccccc2C)cc1
EC50 [5]: > 195 µM (not active)

CCOC(=O)c1c(C)n(C)c2ccc(OC)c(NC(=O)CN3CCSCC3)c12
EC50 [5]: > 195 µM (not active)

CCCC(=O)Nc1nc(C)c(-c2csc(Nc3ccc(Cl)cc3)n2)s1
CC50 [1]: 7.41 µM (active)

O=C1N[C@@H](Cc2ccccc2)C(=O)N2[C@@H]3N(S(=O)(=O)c4ccc(F)cc4)c4ccccc4[C@]3(Br)C[C@@H]12
CC50 [1]: > 50 µM (active)

Cc1cc(C)n(CC(C)NC(=O)c2cc(COc3ccc(F)c(F)c3)on2)n1 (configuration not stated)
EC50 [5]: > 195 µM (not active)

CCOC(=O)C1CCN(C(=O)CCc2c(C)nc3cc(-c4ccccc4)nn3c2C)CC1
EC50 [2]: 27.1 µM (active) | EC50 [4]: 18.2 µM (active)

c1ccc(OCc2nc3c4c(ncn3n2)-c2ccccc2CC42CCCC2)cc1
EC50 [6]: 114 µM (active) | EC50 [7]: > 150 µM (not active) | EC50 [8]: 22 µM (active)

COc1ccc(-n2c(C)cc(-c3csc(NC(=O)c4ccc(S(=O)(=O)N(C)C)cc4)n3)c2C)cc1
EC50 [5]: > 195 µM (not active)

Cc1nn(-c2ccccc2)c(Cl)c1C1C(C#N)=C(N)OC2=C1C(=O)CC(C)(C)C2 (configuration not stated)
EC50 [6]: 1.4 µM (active) | EC50 [7]: 16.1 µM (active) | EC50 [8]: > 150 µM (not active)

COc1cc(NS(=O)(=O)c2csc(C(N)=O)c2)cc(OC)c1
EC50 [5]: > 195 µM (not active)

CCC1(C)Cc2c(sc3nc(SC)nc(N)c23)CO1 (configuration not stated)
CC50 [1]: 31 µM (active)

COc1ccc(-c2c(C#N)c(N)nc3sc(C(=O)c4ccccc4)c(N)c23)cc1
EC50 [6]: 5.29 µM (active) | EC50 [7]: > 150 µM (not active) | EC50 [8]: > 150 µM (not active)

COc1ccc(CCNC(=O)Cc2cccs2)cc1
EC50 [5]: > 195 µM (not active)

Cc1nnc(C)c2c(C)n(C(c3ccccc3)c3ccccc3)c(C)c12
EC50 [9]: 1.46 µM (active) | EC50 [10]: > 60 µM (not active) | CC50 [1]: 18.3 µM (active)

Nc1cc(C(F)(F)F)ccc1N1CCOCC1
IC50 [11]: 29.9 µM (active)

CCOc1ccccc1CNC(=O)c1nn(C)c2c1CS(=O)(=O)c1ccccc1-2
EC50 [2]: > 120 µM (not active) | EC50 [3]: > 120 µM (not active) | EC50 [4]: > 120 µM (not active)

COc1cccc(CC(=O)N[C@@H](CCSC)c2nc3ccccc3[nH]2)c1
EC50 [5]: > 195 µM (not active)

CCn1c(-c2ccccc2)c[nH]c1=S
EC50 [8]: > 150 µM (not active)

Cc1ccc(-c2cc(-c3ccccc3Cl)[nH]n2)c(O)c1
EC50 [6]: 6.71 µM (active) | EC50 [7]: 13.6 µM (active) | EC50 [8]: 20.1 µM (inconclusive)

COc1cc(C)ccc1NC(=O)Cc1csc(NC(=O)Nc2ccccc2OC)n1
EC50 [6]: 15.4 µM (active) | EC50 [7]: > 150 µM (not active) | EC50 [8]: 104 µM (active)

COc1ccc2oc(C(=O)OCC(=O)N(C)CC(=O)Nc3ccc(C)cc3)c(C)c2c1
EC50 [5]: > 195 µM (not active)

C/C=C/c1ccc(OCC(=O)Nc2ccc(OC)c(OC)c2)c(OC)c1
EC50 [5]: > 195 µM (not active)

CC(C)(C)n1nnnc1CN1CCC(NC(=O)NC2CCCCC2)CC1
EC50 [5]: 33.9 µM (active)

CCOc1ccc2c3c(c(=O)oc2c1OCC)CCCC3
CC50 [1]: 44 µM (active)

CCC(C(=O)NCC1CCCO1)n1nc(C)c2sc3ccccc3c2c1=O (configuration not stated)
EC50 [6]: > 150 µM (not active) | EC50 [7]: > 150 µM (not active) | EC50 [8]: > 150 µM (not active)

CCCn1cc(CN2CCC(n3nccc3NC(=O)c3ccccc3)CC2)c(C)n1
EC50 [6]: > 150 µM (not active) | EC50 [7]: > 150 µM (not active) | EC50 [8]: > 150 µM (not active)

c1ccc(-c2nc(C3CCCCC3)c3sccc3n2)cc1
EC50 [6]: 4.26 µM (active) | EC50 [7]: 15.5 µM (active) | EC50 [8]: 23.9 µM (active)

Cc1cc(C(C)(C)C)cc(C)c1COC(=O)c1cccnc1
EC50 [6]: 15.8 µM (active) | EC50 [7]: > 150 µM (not active) | EC50 [8]: > 150 µM (not active)

COc1cccc(OC)c1CC1SC(=O)NC1=O (configuration not stated)
CC50 [1]: 40.2 µM (active)

Cc1ccc(C)c(C(=O)OCC(=O)Nc2cccc(S(=O)(=O)NC3=NCCCCC3)c2)c1
CC50 [1]: 20.6 µM (active)

Cc1cc(C(=O)COC(=O)c2ccco2)c(C)n1Cc1ccco1
EC50 [5]: < 0.16 µM (active)

O=S(=O)(c1ccc2ccccc2c1)N1CCN(c2ccc(O)cc2)CC1
IC50 [11]: 35.8 µM (active) | AC50 [12]: 6.17 µM (active)

O=C(CNC(=O)C1COc2ccccc2O1)N/N=C/c1ccc(O)cc1O (configuration not stated)
IC50 [11]: 71.7 µM (active) | AC50 [12]: 6.23 µM (active)

Cc1ccc(C)c2sc(N3CCN(C(=O)c4ccc([N+](=O)[O-])o4)CC3)nc12
EC50 [6]: 2.67 µM (active) | EC50 [7]: 9.98 µM (active) | CC50 [1]: 16.9 µM (active) | EC50 [8]: 2.59 µM (active)

CO[C@@]1(NC(=O)Cc2cccs2)C(=O)N2C(C(=O)O)=C(COC(N)=O)CS[C@@H]21 [CEFOXITIN SODIUM]
EC50 [6]: 5.58 µM (active) | EC50 [7]: 16.2 µM (active) | EC50 [8]: > 150 µM (not active)
